target: T1, ETA Receptor (Rattus norvegicus, UniProt P26684); assay: [125I]ET-1 binding to membranes from MMQ cells (ETA receptor binding assay, Table 4); conditions: test compound at 1 μM; 0.1 nM [125I]ET-1, MMQ cell membranes, 4 hours at 25° C.
T1 construct: endogenous in cells; host or cells: MMQ rat pituitary cells (membranes)
T1 sequence (P26684 21-426): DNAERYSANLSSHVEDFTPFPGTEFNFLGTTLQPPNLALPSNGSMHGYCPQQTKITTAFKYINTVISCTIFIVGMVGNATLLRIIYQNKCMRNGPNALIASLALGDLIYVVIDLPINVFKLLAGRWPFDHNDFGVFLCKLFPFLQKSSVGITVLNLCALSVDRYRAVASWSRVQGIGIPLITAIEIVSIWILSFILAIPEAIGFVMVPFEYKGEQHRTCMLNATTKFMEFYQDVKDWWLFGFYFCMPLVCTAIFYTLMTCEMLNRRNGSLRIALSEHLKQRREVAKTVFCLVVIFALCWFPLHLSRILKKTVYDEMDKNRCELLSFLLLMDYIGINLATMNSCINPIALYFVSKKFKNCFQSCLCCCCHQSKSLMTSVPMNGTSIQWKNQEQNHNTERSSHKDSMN

Row | Structure (SMILES) | % Inhibition of ETA at 1 μM [%]
1 | CCCCN(CCCC)C(=O)CN1CC(c2ccc(OC)cc2OC)C(C(=O)O)C1c1ccc(OC)cc1 (stereo not drawn) [Example 151, trans,trans-1-(N,N-Di(n-butyl)aminocarbonylmethyl)-2-(4-methoxyphenyl)-4-(2,4-dimethoxyphenyl)pyrrolidine-3-carboxylic acid] | 80.5
2 | CCCCN(CCCC)C(=O)CN1CC(c2ccc3c(c2)OCO3)C(C(=O)O)C1c1ccccc1 (stereo not drawn) [Example 152, trans,trans-1-(N,N-Di(n-butyl)aminocarbonylmethyl)-2-phenyl-4-(1,3-benzodioxol-5-yl)pyrrolidine-3-carboxylic acid] | 86.9
3 | CCCCN(CCCC)C(=O)CN1CC(c2ccc3c(c2)CCO3)C(C(=O)O)C1c1ccccc1 (stereo not drawn) [Example 153, trans,trans-1-(N,N-Di(n-butyl)aminocarbonylmethyl)-2-phenyl-4-(5-benzo-2,3-dihydrofuranyl)pyrrolidine-3-carboxylic acid] | 97.1
4 | CCCCN(CCCC)C(=O)CN1CC(c2ccc3c(c2)CCO3)C(C(=O)O)C1c1ccc(C(C)(C)C)cc1 (stereo not drawn) [Example 154, trans,trans-1-(N,N-Di(n-butyl)aminocarbonylmethyl)-2-(4-t-butylphenyl)-4-(5-benzo-2,3-dihydrofuranyl)pyrrolidine-3-carboxylic acid] | 80.2
5 | CCCCN(CCCC)C(=O)CN1CC(c2ccc3c(c2)OCO3)C(C(=O)O)C1c1ccoc1 (stereo not drawn) [Example 156, trans,trans-1-(N. N-Di(n-butyl)aminocarbonylmethyl)-2-(3-furyl)-4-(1,3-benzodioxol-5-yl)pyrrolidine-3-carboxylic acid] | 92.6
6 | CCCCN(CCCC)C(=O)CN1CC(c2ccc3c(c2)OCO3)C(C(=O)O)C1C(C)C (stereo not drawn) [Example 157, trans,trans-1-(N,N-Di(n-butyl)aminocarbonylmethyl)-2-(isopropyl)-4-(1,3-benzodioxol-5-yl)pyrrolidine-3-carboxylic acid] | 83.8
7 | CCCCN(CCCC)C(=O)CN1CC(c2ccc3c(c2)OCO3)C(C(=O)O)C1c1ccc(C(C)(C)C)cc1 (stereo not drawn) [Example 158, trans,trans-1-(N,N-Di(n-butyl)aminocarbonylmethyl)-2-(4-t-butylphenyl)-4-(1,3-benzodioxol-5-yl)pyrrolidine-3-carboxylic acid] | 91.8
8 | CCCCN(CCCC)C(=O)CN1CC(c2ccc3c(c2)CCO3)C(C(=O)O)C1c1ccc(C(C)(C)C)cc1 (stereo not drawn) [Example 159, trans,trans-1-(N,N-Di(n-butyl)aminocarbonylmethyl)-2-(4-t-butylphenyl)-4-(5-benzo-2,3-dihydrofuranylpyrrolidine-3-carboxylic acid] | 36.2
9 | CCCCN(CCCC)C(=O)CN1CC(c2ccc3c(c2)OCO3)C(C(=O)O)C1C1CCC(OC)CC1 (stereo not drawn) [Example 160B, trans,trans-1-(N,N-Di(n-butyl)aminocarbonylmethyl)-2-(anti-4-methoxycyclohexyl)-4-(1,3-benzodioxol-5-yl)pyrrolidine-3-carboxylic acid] | 80.3
10 | CCCCN(CCCC)C(=O)CN1CC(c2ccc3c(c2)OCO3)C(C(=O)O)C1[C@H]1CC[C@H](OC)CC1 (stereo partly drawn) [Example 161, trans,trans-1-(N,N-Di(n-butyl)aminocarbonylmethyl)-2-(syn-4-methoxycyclohexyl)-4-(1,3-benzodioxol-5-yl)pyrrolidine-3-carboxylic acid] | 93.6
11 | CCCCN(CCCC)C(=O)CN1CC(c2ccc3c(c2)CCO3)C(C(=O)O)C1c1ccc2c(c1)CCO2 (stereo not drawn) [Example 162B, trans,trans-1-(N,N-Di(n-butyl)aminocarbonylmethyl)-2,4-di(5-benzo-2,3-dihydrofuranyl)pyrrolidine-3-carboxylic acid] | 91.5
12 | CCCCN(CCCC)C(=O)CN1CC(c2ccc3c(c2)CCO3)C(C(=O)O)C1c1ccoc1 (stereo not drawn) [Example 163, trans,trans-1-(N,N-Di(n-butyl)aminocarbonylmethyl)-2-(3-furyl)-4-(5-benzo-2,3-dihydrofuranyl)pyrrolidine-3-carboxylic acid] | 90.6
13 | CCCCN(CCCC)C(=O)CN1CC(c2cccc(F)c2)C(C(=O)O)C1c1ccc(OC)cc1 (stereo not drawn) [Example 164, trans,trans-1-(N,N-Di(n-butyl)aminocarbonylmethyl)-2-(4-methoxyphenyl)-4-(3-fluorophenyl)pyrrolidine-3-carboxylic acid] | 98.6
14 | CCCCN(CCCC)C(=O)CN1CC(c2cccnc2)C(C(=O)O)C1c1ccc(OC)cc1 (stereo not drawn) [Example 165, trans,trans-1-(N,N-Di(n-butyl)aminocarbonylmethyl)-2-(4-methoxyphenyl)-4-(3-pyridyl)pyrrolidine-3-carboxylic acid] | 54.1
15 | CCCCN(CCCC)C(=O)CN1CC(c2ccc3c(c2)OCO3)C(C(=O)O)C1c1ccccc1F (stereo not drawn) [Example 166, trans,trans-1-(N,N-Di(n-butyl)aminocarbonylmethyl)-2-(2-fluorophenyl)-4-(1,3-benzodioxol-5-yl)pyrrolidine-3-carboxylic acid] | 91.6
16 | CCCCN(CCCC)C(=O)CN1CC(c2ccc3c(c2)OCO3)C(C(=O)O)C1c1cccc(F)c1 (stereo not drawn) [Example 167, trans,trans-1-(N,N-Di(n-butyl)aminocarbonylmethyl)-2-(3-fluorophenyl)-4-(1,3-benzodioxol-5-yl)pyrrolidine-3-carboxylic acid] | 94.4
17 | COc1ccc(C2C(C(=O)O)C(c3ccc4c(c3)OCO4)CN2CC(=O)N2CCCC(C)(C)C2)cc1 (stereo not drawn) [Example 294, trans—trans-2-(4-Methoxyphenyl)-4-(1,3-benzodioxol-5-yl)-1-[3,3-dimethylpiperidinyl-carbonylmethyl]-pyrrolidine-3-carboxylic acid] | 77.7
18 | CCCN(CCN1CC(c2ccc3c(c2)OCO3)C(C(=O)O)C1c1ccc(OC)cc1)C(=O)OCC(C)C (stereo not drawn) [Example 295, trans—trans-2-(4-Methoxyphenyl)-4-(1,3-benzodioxol-5-yl)-1-[2-(N-propyl-N-iso-butoxycarbonylamino)ethyl]-pyrrolidine-3-carboxylic acid] | 93.0
19 | COc1ccc(C2C(C(=O)O)C(c3ccc4c(c3)OCO4)CN2CC(=O)N2CCc3ccccc3C2)cc1 (stereo not drawn) [Example 296, trans—trans-2-(4-Methoxyphenyl)-4-(1,3-benzodioxol-5-yl)-1-[1,2,3,4-tetrahydroisoquinolin-2-carbonylmethyl]-pyrrolidine-3-carboxylic acid] | 87.1
20 | CCCN(CCN1CC(c2ccc3c(c2)OCO3)C(C(=O)O)C1c1ccc(OC)cc1)C(=O)N(C)C (stereo not drawn) [Example 297, trans—trans-2-(4-Methoxyphenyl)-4-(1,3-benzodioxol-5-yl)-1-[2-(N-propyl-N-dimethylaminocarbonylamino)ethyl]-pyrrolidine-3-carboxylic acid] | 84.4
21 | CCCN(CCN1CC(c2ccc3c(c2)OCO3)C(C(=O)O)C1c1ccc(OC)cc1)S(=O)(=O)c1ccc([N+](=O)[O-])cc1 (stereo not drawn) [Example 298, trans,trans-2-(4-Methoxyphenyl)-4-(1,3-benzodioxol-5-yl)-1-(2-(N-propyl-N-(4-nitrobenzenesulfonyl)amino)ethyl)-pyrrolidine-3-carboxylic acid] | 93.3
22 | CCCCCS(=O)(=O)N(CCC)CCN1CC(c2ccc3c(c2)OCO3)C(C(=O)O)C1c1ccc(OC)cc1 (stereo not drawn) [Example 299, trans,trans-2-(4-Methoxyphenyl)-4-(1,3-benzodioxol-5-yl)-1-(2-(N-propyl-N-n-pentanesulfonylamino)ethyl)-pyrrolidine-3-carboxylic acid] | 90.4
23 | C=C(C)CS(=O)(=O)N(CCC)CCN1CC(c2ccc3c(c2)OCO3)C(C(=O)O)C1c1ccc(OC)cc1 (stereo not drawn) [Example 301, trans,trans-2-(4-Methoxyphenyl)-4-(1,3-benzodioxol-5-yl)-1-(2-(N-propyl-N-(2-methyl-2-propenesulfonyl)amino)ethyl)-pyrrolidine-3-carboxylic acid] | 96.7
24 | CCC1CCCCN1C(=O)CN1CC(c2ccc3c(c2)OCO3)C(C(=O)O)C1c1ccc(OC)cc1 (stereo not drawn) [Example 302, trans—trans-2-(4-Methoxyphenyl)-4-(1,3-benzodioxol-5-yl)-1-[2-ethylpiperidinyl-carbonylmethyl]-pyrrolidine-3-carboxylic acid] | 86.6
25 | CCCCCCCS(=O)(=O)N(CCC)CCN1CC(c2ccc3c(c2)OCO3)C(C(=O)O)C1c1ccc(OC)cc1 (stereo not drawn) [Example 304, trans,trans-2-(4-Methoxyphenyl)-4-(1,3-benzodioxol-5-yl)-1-(2-(N-propyl-N-heptanesulfonylamino)ethyl)-pyrrolidine-3-carboxylic acid] | 89.7
26 | CCOC(=O)N(CC)CCN1CC(c2ccc3c(c2)OCO3)C(C(=O)O)C1c1ccc(OC)cc1 (stereo not drawn) [Example 305, trans—trans-2-(4-Methoxyphenyl)-4-(1,3-benzodioxol-5-yl)-1-[2-(N-ethyl-N-ethoxycarbonylamino)ethyl]-pyrrolidine-3-carboxylic acid] | 87.4
27 | CCCCCCS(=O)(=O)N(CCC)CCN1CC(c2ccc3c(c2)OCO3)C(C(=O)O)C1c1ccc(OC)cc1 (stereo not drawn) [Example 306, trans,trans-2-(4-Methoxyphenyl)-4-(1,3-benzodioxol-5-yl)-1-(2-(N-propyl-N-hexanesulfonylamino)ethyl)-pyrrolidine-3-carboxylic acid] | 93.3

— patent US7208517B1, “Endothelin antagonists” (Abbott Labortories, priority 1994, dated 2007)
